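Cells were grown in 96-well plates and exposed to each compound for 48 hours at five concentrations; endpoints were interpolated linearly between bracketing concentrations, or set to the highest concentration if not reached. Definition used: TGI = concentration required for complete inhibition of growth.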
Columns and labels:
Test in all cases: inhibition of tumour cell growth, NCI panel, 48 h
[1] = tested on: ACHN renal
[2] = tested on: COLO 205 colon
[3] = tested on: MALME-3M melanoma
[4] = tested on: NCI-H226 lung
[5] = tested on: KM12 colon
[6] = tested on: BT-549 breast
[7] = tested on: NCI/ADR-RES ovarian
[8] = tested on: CAKI-1 renal
[9] = tested on: NCI-H522 lung
[10] = tested on: CCRF-CEM leukemia
[11] = tested on: OVCAR-8 ovarian
[12] = tested on: SNB-19 CNS
[13] = tested on: SK-MEL-2 melanoma
[14] = tested on: SN12C renal
[15] = tested on: SNB-75 CNS
[16] = tested on: MDA-MB-435
[17] = tested on: MDA-N
[18] = tested on: TK-10 renal
[19] = tested on: DU-145 prostate
[20] = tested on: SF-295 CNS
[21] = tested on: IGROV1 ovarian
[22] = tested on: PC-3 prostate
[23] = tested on: OVCAR-5 ovarian
[24] = tested on: HT29 colon
[25] = tested on: HOP-92 NSCLC
[26] = tested on: A549 NSCLC
[27] = tested on: UACC-62 melanoma
[28] = tested on: NCI-H23 lung
[29] = tested on: OVCAR-3 ovarian
[30] = tested on: HS 578T breast
[31] = tested on: UACC-257 melanoma
[32] = tested on: SR leukemia
[33] = tested on: LOX IMVI melanoma
[34] = tested on: K-562 leukemia
[35] = tested on: OVCAR-4 ovarian
[36] = tested on: SF-539 CNS
[37] = tested on: RPMI-8226 leukemia
[38] = tested on: RXF 393 renal
[39] = tested on: SK-MEL-5 melanoma
[40] = tested on: UO-31 renal
[41] = tested on: EKVX NSCLC
[42] = tested on: MOLT-4 leukemia
[43] = tested on: NCI-H460 lung
[44] = tested on: HCT-15 colon
[45] = tested on: MCF7 breast
[46] = tested on: HCC-2998 colon
[47] = tested on: U251 CNS
[48] = tested on: T-47D breast
[49] = tested on: SW-620 colon
[50] = tested on: MDA-MB-231 breast
[51] = tested on: SF-268 CNS
[52] = tested on: M14 melanoma
[53] = tested on: HCT-116 colon
[54] = tested on: A498 renal
[55] = tested on: 786-0 renal
[56] = tested on: SK-MEL-28 melanoma
[57] = tested on: SK-OV-3 ovarian
[58] = tested on: HOP-62 NSCLC
[59] = tested on: HL-60(TB) leukemia

Nn1c(SCC(=O)O)nc2ccccc2c1=O
TGI [1]: > 100 µM
TGI [2]: > 100 µM
TGI [3]: > 100 µM
TGI [4]: > 100 µM
TGI [5]: > 100 µM
TGI [6]: > 100 µM
TGI [7]: > 100 µM
TGI [8]: > 100 µM
TGI [9]: > 100 µM
TGI [10]: > 100 µM
TGI [11]: > 100 µM
TGI [12]: > 100 µM
TGI [13]: > 100 µM
TGI [14]: > 100 µM
TGI [15]: > 100 µM
TGI [16]: > 100 µM
TGI [17]: > 100 µM
TGI [18]: > 100 µM
TGI [19]: > 100 µM
TGI [20]: > 100 µM
TGI [21]: > 100 µM
TGI [22]: > 100 µM
TGI [23]: > 100 µM
TGI [24]: > 100 µM
TGI [25]: > 100 µM
TGI [26]: > 100 µM
TGI [27]: > 100 µM
TGI [28]: > 100 µM
TGI [29]: > 100 µM
TGI [30]: > 100 µM
TGI [31]: > 100 µM
TGI [32]: > 100 µM
TGI [33]: > 100 µM
TGI [34]: > 100 µM
TGI [35]: > 100 µM
TGI [36]: > 100 µM
TGI [37]: > 100 µM
TGI [38]: > 100 µM
TGI [39]: > 100 µM
TGI [40]: > 100 µM
TGI [41]: > 100 µM
TGI [42]: > 100 µM
TGI [43]: > 100 µM
TGI [44]: > 100 µM
TGI [45]: > 100 µM
TGI [46]: > 100 µM
TGI [47]: > 100 µM
TGI [48]: > 100 µM
TGI [49]: > 100 µM
TGI [50]: > 100 µM
TGI [51]: > 100 µM
TGI [52]: > 100 µM
TGI [53]: > 100 µM
TGI [54]: > 100 µM
TGI [55]: > 100 µM
TGI [56]: > 100 µM

CCn1c(=O)c2cn[nH]c2n(C)c1=O
TGI [57]: > 100 µM
TGI [1]: > 100 µM
TGI [2]: > 100 µM
TGI [3]: > 100 µM
TGI [4]: > 100 µM
TGI [5]: > 100 µM
TGI [6]: > 100 µM
TGI [7]: > 100 µM
TGI [8]: > 100 µM
TGI [9]: > 100 µM
TGI [10]: > 100 µM
TGI [11]: > 100 µM
TGI [12]: > 100 µM
TGI [13]: > 100 µM
TGI [14]: > 100 µM
TGI [15]: > 100 µM
TGI [16]: > 100 µM
TGI [17]: > 100 µM
TGI [18]: > 100 µM
TGI [19]: > 100 µM
TGI [20]: > 100 µM
TGI [21]: > 100 µM
TGI [22]: > 100 µM
TGI [23]: > 100 µM
TGI [24]: > 100 µM
TGI [25]: > 100 µM
TGI [26]: > 100 µM
TGI [27]: > 100 µM
TGI [28]: > 100 µM
TGI [58]: > 100 µM
TGI [29]: > 100 µM
TGI [30]: > 100 µM
TGI [31]: > 100 µM
TGI [32]: > 100 µM
TGI [33]: > 100 µM
TGI [34]: > 100 µM
TGI [35]: > 100 µM
TGI [36]: > 100 µM
TGI [37]: > 100 µM
TGI [38]: > 100 µM
TGI [39]: > 100 µM
TGI [40]: > 100 µM
TGI [41]: > 100 µM
TGI [42]: > 100 µM
TGI [43]: > 100 µM
TGI [44]: > 100 µM
TGI [45]: > 100 µM
TGI [46]: > 100 µM
TGI [47]: > 100 µM
TGI [48]: > 100 µM
TGI [49]: > 100 µM
TGI [50]: > 100 µM
TGI [51]: > 100 µM
TGI [52]: > 100 µM
TGI [53]: > 100 µM
TGI [54]: > 100 µM
TGI [55]: > 100 µM
TGI [56]: > 100 µM

Clc1c2ncccc2cc2n[nH]nc12
TGI [57]: > 100 µM
TGI [1]: > 100 µM
TGI [2]: > 100 µM
TGI [3]: > 100 µM
TGI [4]: > 100 µM
TGI [5]: > 100 µM
TGI [6]: > 100 µM
TGI [7]: > 100 µM
TGI [8]: > 100 µM
TGI [9]: > 100 µM
TGI [10]: > 100 µM
TGI [11]: > 100 µM
TGI [12]: > 100 µM
TGI [59]: > 100 µM
TGI [13]: > 100 µM
TGI [14]: > 100 µM
TGI [15]: > 100 µM
TGI [16]: > 100 µM
TGI [17]: > 100 µM
TGI [18]: > 100 µM
TGI [19]: > 100 µM
TGI [20]: > 100 µM
TGI [21]: > 100 µM
TGI [22]: > 100 µM
TGI [23]: > 100 µM
TGI [24]: > 100 µM
TGI [25]: > 100 µM
TGI [26]: > 100 µM
TGI [27]: > 100 µM
TGI [28]: > 100 µM
TGI [58]: > 100 µM
TGI [29]: > 100 µM
TGI [30]: > 100 µM
TGI [31]: > 100 µM
TGI [32]: > 100 µM
TGI [34]: > 100 µM
TGI [35]: > 100 µM
TGI [36]: > 100 µM
TGI [37]: > 100 µM
TGI [38]: > 100 µM
TGI [39]: > 100 µM
TGI [40]: > 100 µM
TGI [41]: > 100 µM
TGI [42]: 77.1 µM
TGI [43]: > 100 µM
TGI [44]: > 100 µM
TGI [45]: > 100 µM
TGI [46]: > 100 µM
TGI [47]: > 100 µM
TGI [48]: > 100 µM
TGI [49]: > 100 µM
TGI [50]: > 100 µM
TGI [51]: > 100 µM
TGI [52]: > 100 µM
TGI [53]: > 100 µM
TGI [54]: > 100 µM
TGI [55]: > 100 µM
TGI [56]: > 100 µM

Cc1cccc2nc3cccc(C(=O)NCCC[N+](C)(CCCNC(=O)c4cccc5nc6cccc(C)c6nc45)Cc4ccc([N+](=O)[O-])n4C)c3nc12
TGI [57]: > 100 µM
TGI [1]: > 100 µM
TGI [2]: > 100 µM
TGI [3]: > 100 µM
TGI [4]: > 100 µM
TGI [5]: > 100 µM
TGI [6]: > 100 µM
TGI [7]: > 100 µM
TGI [8]: > 100 µM
TGI [9]: > 100 µM
TGI [10]: > 26.9 µM
TGI [11]: > 100 µM
TGI [12]: > 100 µM
TGI [13]: > 100 µM
TGI [14]: > 100 µM
TGI [15]: > 100 µM
TGI [16]: > 100 µM
TGI [17]: > 100 µM
TGI [18]: > 100 µM
TGI [19]: > 100 µM
TGI [20]: > 100 µM
TGI [21]: > 100 µM
TGI [22]: > 100 µM
TGI [23]: > 100 µM
TGI [24]: > 100 µM
TGI [25]: > 100 µM
TGI [26]: > 100 µM
TGI [27]: > 100 µM
TGI [28]: > 100 µM
TGI [58]: > 100 µM
TGI [29]: > 100 µM
TGI [30]: > 100 µM
TGI [31]: > 100 µM
TGI [32]: > 100 µM
TGI [33]: > 100 µM
TGI [34]: > 100 µM
TGI [35]: > 100 µM
TGI [37]: > 100 µM
TGI [38]: > 100 µM
TGI [39]: > 100 µM
TGI [40]: > 100 µM
TGI [41]: > 100 µM
TGI [42]: 26.2 µM
TGI [43]: > 100 µM
TGI [44]: > 100 µM
TGI [45]: > 100 µM
TGI [46]: > 100 µM
TGI [47]: > 100 µM
TGI [48]: > 100 µM
TGI [49]: > 100 µM
TGI [50]: > 100 µM
TGI [51]: > 100 µM
TGI [52]: > 100 µM
TGI [53]: > 100 µM
TGI [54]: > 100 µM
TGI [55]: > 100 µM
TGI [56]: > 100 µM

ONCCCn1cnc2c(NC3CC3)ncnc21
TGI [57]: > 100 µM
TGI [1]: > 100 µM
TGI [2]: > 100 µM
TGI [3]: > 100 µM
TGI [4]: > 100 µM
TGI [5]: > 100 µM
TGI [6]: > 100 µM
TGI [7]: > 100 µM
TGI [8]: > 100 µM
TGI [9]: > 100 µM
TGI [10]: > 100 µM
TGI [11]: > 100 µM
TGI [12]: > 100 µM
TGI [13]: > 100 µM
TGI [14]: > 100 µM
TGI [15]: > 100 µM
TGI [16]: > 100 µM
TGI [17]: > 100 µM
TGI [18]: > 100 µM
TGI [19]: > 100 µM
TGI [20]: > 100 µM
TGI [21]: > 100 µM
TGI [22]: > 100 µM
TGI [23]: > 100 µM
TGI [24]: > 100 µM
TGI [25]: > 100 µM
TGI [26]: > 100 µM
TGI [27]: > 100 µM
TGI [28]: > 100 µM
TGI [58]: > 100 µM
TGI [29]: > 100 µM
TGI [30]: > 100 µM
TGI [31]: > 100 µM
TGI [32]: > 100 µM
TGI [33]: > 100 µM
TGI [34]: > 100 µM
TGI [35]: > 100 µM
TGI [36]: > 100 µM
TGI [37]: > 100 µM
TGI [38]: > 100 µM
TGI [39]: > 100 µM
TGI [40]: > 100 µM
TGI [41]: > 100 µM
TGI [42]: > 100 µM
TGI [43]: > 100 µM
TGI [44]: > 100 µM
TGI [45]: > 100 µM
TGI [46]: > 100 µM
TGI [47]: > 100 µM
TGI [48]: > 100 µM
TGI [49]: > 100 µM
TGI [50]: > 100 µM
TGI [51]: > 100 µM
TGI [52]: > 100 µM
TGI [53]: > 100 µM
TGI [54]: > 100 µM
TGI [55]: > 100 µM
TGI [56]: > 100 µM
